Measurements as given in patent US10919903B2, “Nitrogen-containing heterocyclic compounds as FXR modulators” (Hepagene Therapeutics (HK) Limited, priority 2016, dated 2021).

Experiments:
[1] = molecular target: T1, FXR (Homo sapiens, UniProt Q96RI1); assay: FXR Transactivation Assay (GAL4 luciferase reporter, pBIND-FXR in HEK293T); assay type: cell-based; details: HEK293T cells
T1 construct: expressed in transfected cells; host or cells: HEK293T
T1 sequence (Q96RI1 1-486): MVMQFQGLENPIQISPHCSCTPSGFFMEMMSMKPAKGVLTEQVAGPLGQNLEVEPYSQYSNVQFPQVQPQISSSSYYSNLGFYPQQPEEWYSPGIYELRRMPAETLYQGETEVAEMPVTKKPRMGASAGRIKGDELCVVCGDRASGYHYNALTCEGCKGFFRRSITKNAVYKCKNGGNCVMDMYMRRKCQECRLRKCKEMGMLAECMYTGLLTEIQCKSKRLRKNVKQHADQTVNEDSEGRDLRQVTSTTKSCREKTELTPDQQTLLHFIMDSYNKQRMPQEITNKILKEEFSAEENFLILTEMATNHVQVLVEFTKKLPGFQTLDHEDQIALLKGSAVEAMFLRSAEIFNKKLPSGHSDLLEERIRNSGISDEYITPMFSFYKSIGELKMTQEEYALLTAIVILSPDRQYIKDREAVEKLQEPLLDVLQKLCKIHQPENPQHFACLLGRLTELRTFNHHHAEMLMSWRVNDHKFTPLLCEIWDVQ
Procedure: FXR Transactivation Assay
pGL4.35 [luc2P/9XGAL4 UAS/Hygro]
Steady-Glo™ Luciferase Assay System
GW4064 as a positive control
(§1) • 1. Hek293T cells were plated at 1.1*10^6/ml into a 100 mm dish. • 2. […] Cells were incubated at 37° C. under 5% CO2 atmosphere. • 3. All of compounds were 3-fold serial diluted from 10 mM stock for 10 doses in DMSO. • 4. Transfer compound dilutions into 384 well assay plates using liquid workstation. • 5. Seed 25 ul HEK293T cells into 384 well assay plate (prepared step 4) at 0.6*10^5/ml. Cells were incubated at 37° C. under 5% CO2 atmosphere overnight. • 6. Add 25 ul steady-Glo™ Luciferase Assay Reagent into each well of 384-well assay plate. • 7. […] Calculate EC50 by fitting % Activity values and log of compound concentrations to nonlinear regression (dose response−variable slope) with Graphpad 5.0. FXR Coactivator Assay Reagents: LanthaScreen™ TR-FRET Farnesoid X Receptor Coactivator Assay GW4064 as a positive control Process: • 1. All of compounds were 3-fold serial diluted from 10 mM stock for 10 doses in DMSO. • 2. Dilute each 100× agonist serial dilution to 2× using Complete Coregulator buffer G. • 3. Transfer 10 μl of each of the 2× agonist serial dilutions to 384 well assay plates. • 4. Add 5 μl of 4×FXR-LBD to 384 well assay plates. • 5. […] Incubate at room temperature protected from light. • 7. […] Calculate EC50 by fitting % Activity values and log of compound concentrations to nonlinear regression (dose response−variable slope) with Graphpad 5.0.

[2] = molecular target: T2, FXR-LBD (Homo sapiens, UniProt Q96RI1); assay: FXR Coactivator Assay (LanthaScreen TR-FRET); assay type: biochemical
T2 construct: Add 5 μl of 4×FXR-LBD to 384 well assay plates; purchased
T2 sequence (Q96RI1 262-486 limits assumed): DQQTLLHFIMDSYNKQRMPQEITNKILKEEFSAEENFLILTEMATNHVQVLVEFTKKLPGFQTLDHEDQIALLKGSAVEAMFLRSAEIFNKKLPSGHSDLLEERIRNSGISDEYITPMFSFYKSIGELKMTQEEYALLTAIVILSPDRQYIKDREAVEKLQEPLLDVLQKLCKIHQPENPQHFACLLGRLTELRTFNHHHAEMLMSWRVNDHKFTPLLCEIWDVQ
Procedure: as §1

| Compound | EC50 [1] [µM] | EC50 [2] [µM] |
| --- | --- | --- |
| COc1cc(C(N)=O)cc2sc(N3CCN(Cc4c(-c5c(Cl)cncc5Cl)noc4C4CC4)C[C@H]3C)nc12 [VIII-03, 2-[(2R)-4-[[5-Cyclopropyl-3-(3,5-dichloropyridin-4-yl)-1,2-oxazol-4-yl]methyl]-2-methylpiperazin-1-yl]-4-methoxy-1,3-benzothiazole-6-carboxamide] | 0.101 to 0.4 | – |
| Cc1cc(C(=O)O)cc2sc(N3CCC(Cc4c(C(C)C)cnn4-c4c(Cl)cccc4Cl)CC3)nc12 [IV-10] | 0.101 to 0.4 | – |
| C[C@@H]1CN(Cc2c(-c3c(Cl)cccc3Cl)noc2C2CC2)CCN1c1nc2c(OC(F)(F)F)cc(C(=O)O)cc2s1 [VII-04, 2-[(2R)-4-[[5-Cyclopropyl-3-(2,6-dichlorophenyl)-1,2-oxazol-4-yl]methyl]-2-methylpiperazin-1-yl]-4-(trifluoromethoxy)-1,3-benzothiazole-6-carboxylic acid] | 0.01 to 0.1 | – |
| COc1cc(C(=O)O)cc2sc(N3CCN(Cc4c(-c5c(Cl)cccc5Cl)noc4C(C)C)C(C)C3)nc12 (stereo not shown) [II-24] | 0.01 to 0.1 | 0.01 to 0.1 |
| COc1cc(C(=O)O)cc2sc(N3CCN(Cc4c(-c5c(Cl)cccc5Cl)noc4C(C)C)C4CCCCC43)nc12 (racemic) [II-39] | 0.101 to 0.4 | – |
| COc1cc(C(=O)O)cc2sc(N3CCC(Cc4c(C(C)C)cnn4-c4c(Cl)cccc4Cl)CC3)nc12 [II-44] | 0.401 to 5 | – |
| COc1cc(C(=O)O)cc2sc(N3CC=C(Cc4c(-c5c(Cl)cccc5Cl)noc4C4CC4)C[C@H]3C)nc12 [II-46, 2-[(2R)-4-[[5-Cyclopropyl-3-(2,6-dichlorophenyl)-1,2-oxazol-4-yl]methyl]-2-methyl-1,2,3,6-tetrahydropyridin-1-yl]-4-methoxy-1,3-benzothiazole-6-carboxylic acid] | – | 0.01 to 0.1 |
| COc1cc(C(=O)O)cc2sc(N3CCN(Cc4c(-c5c(Cl)cccc5Cl)noc4C(C)C)C4(CC4)C3)nc12 [II-30] | 0.101 to 0.4 | 0.01 to 0.1 |
| COc1cc(C(=O)O)cc2sc(C3CCN(Cc4c(-c5c(Cl)cccc5Cl)noc4C(C)C)CC3)nc12 [II-47, 2-(1-((3-(2,6-Dichlorophenyl)-5-isopropylisoxazol-4-yl)methyl)piperidin-4-yl)-4-methoxybenzo[d]thiazole-6-carboxylic acid] | – | 0.101 to 0.4 |
| COc1cc(C(=O)O)cc2sc(N3CCN(Cc4c(-c5c(Cl)cccc5Cl)noc4C4CC4)CC3C)nc12 (stereo not shown) [II-13] | 0.01 to 0.1 | 0.01 to 0.1 |
| CCC1CN(Cc2c(-c3c(Cl)cccc3Cl)noc2C(C)C)CCN1c1nc2c(OC)cc(C(=O)O)cc2s1 (stereo not shown) [II-18] | 0.01 to 0.1 | 0.01 to 0.1 |
| COc1cc(C(N)=O)cc2sc(N3CCN(Cc4c(-c5c(Cl)cccc5Cl)noc4C(C)C)CC3)nc12 [VIII-01] | 0.101 to 0.4 | 0.01 to 0.1 |
| COc1cc(C(=O)O)cc2sc(N3CCN(Cc4c(-c5c(Cl)cccc5Cl)noc4C4CC4)C(C)C3)nc12 (stereo not shown) [II-25] | 0.101 to 0.4 | – |
| COc1cc(C(=O)O)cc2sc(N3CCC(Cc4c(-c5ccccc5OC(F)(F)F)noc4C4CC4)CC3)nc12 [II-50] | 0.01 to 0.1 | – |
| CC(C)c1cc(C(=O)O)cc2sc(N3CCN(Cc4c(-c5c(Cl)cccc5Cl)noc4C4CC4)C[C@H]3C)nc12 [VII-01, (R)-2-(4-((5-Cyclopropyl-3-(2,6-dichlorophenyl)isoxazol-4-yl)methyl)-2-methylpiperazin-1-yl)-4-isopropylbenzo[d]thiazole-6-carboxylic acid] | 0.01 to 0.1 | 0.01 to 0.1 |
| CCC1CN(c2nc3c(OC)cc(C(=O)O)cc3s2)CCN1Cc1c(-c2c(Cl)cccc2Cl)noc1C(C)C (stereo not shown) [II-20] | 0.101 to 0.4 | 0.01 to 0.1 |
| COc1cc(C(=O)O)cc2sc(N3CCN(Cc4c(-c5c(Cl)cccc5Cl)noc4C(C)C)CC34CC4)nc12 [II-17] | 0.401 to 5 | – |

| Compound | EC50 [1] [µM] | EC50 [2] [µM] |
| --- | --- | --- |
| CC(C)c1onc(-c2c(Cl)cccc2Cl)c1CC1CCN(c2nc3c(F)cc(C(=O)O)cc3s2)CC1 [VI-11] | 0.401 to 5 | – |
| COc1cc(C(=O)O)cc2sc(N3CCN(Cc4c(C(C)C)cnn4-c4c(Cl)cccc4Cl)CC3)nc12 [II-03, 2-(4-[[1-(2,6-Dichlorophenyl)-4-(propan-2-yl)-1H-pyrazol-5-yl]methyl]piperazin-1-yl)-4-methoxy-1,3-benzothiazole-6-carboxylic acid] | 0.101 to 0.4 | 0.01 to 0.1 |
| COc1cc(C(=O)O)cc2sc(N3CCN(Cc4c(-c5c(Cl)cccc5Cl)noc4C(C)C)CC3CO)nc12 (stereo not shown) [II-07, 2-(4-[[3-(2,6-Dichlorophenyl)-5-(propan-2-yl)-1,2-oxazol-4-yl]methyl]-2-(hydroxymethyl)piperazin-1-yl)-4-methoxy-1,3-benzothiazole-6-carboxylic acid] | 0.401 to 5 | – |
| COc1cc(-c2nnn[nH]2)cc2sc(N3CCN(Cc4c(-c5c(Cl)cccc5Cl)noc4C(C)C)CC3)nc12 [IX-02, 3-(2,6-Dichlorophenyl)-5-isopropyl-4-((4-(4-methoxy-6-(1H-tetrazol-5-yl)benzo[d]thiazol-2-yl)piperazin-1-yl)methyl)isoxazole] | 0.401 to 5 | – |
| COc1cc(C(=O)O)cc2sc(N3CCN(Cc4c(-c5c(Cl)cccc5Cl)noc4C4CC4)C(C)(C)C3)nc12 [II-23] | 0.401 to 5 | – |
| COc1cc(C(=O)O)cc2sc(N3CCC(Cc4c(-c5c(Cl)cccc5Cl)noc4C(C)C)CC3)nc12 [II-43] | 0.101 to 0.4 | 0.01 to 0.1 |
| COc1cc(C(=O)O)cc2sc(N3CCN(Cc4c(C(C)C)cnn4-c4c(Cl)cccc4Cl)CC3C)nc12 (stereo not shown) [II-15] | 0.01 to 0.1 | – |
| COc1cc(C(N)=O)cc2nc(N3CCN(Cc4c(-c5c(Cl)cccc5Cl)noc4C4CC4)C[C@@H]3C)sc12 [VIII-04, (S)-2-(4-((5-Cyclopropyl-3-(2,6-dichlorophenyl)isoxazol-4-yl)methyl)-2-methylpiperazin-1-yl)-7-methoxybenzo[d]thiazole-5-carboxamide] | 0.401 to 5 | – |
| COc1cc(C(=O)O)cc2sc(N3CCC(Cc4c(-c5c(Cl)cccc5Cl)noc4C(C)C)C[C@H]3C)nc12 (stereo partly drawn) [II-45, 2-((2R)-4-((3-(2,6-Dichlorophenyl)-5-isopropylisoxazol-4-yl)methyl)-2-methylpiperidin-1-yl)-4-methoxybenzo[d]thiazole-6-carboxylic acid] | 0.01 to 0.1 | – |
| COc1cc(C(=O)O)cc2sc(N3CCN(Cc4c(-c5c(Cl)cccc5Cl)noc4C(C)C)C(C(C)C)C3)nc12 (racemic) [II-29] | 0.401 to 5 | – |
| COc1cc(C(=O)O)cc2sc(N3CCC(Cc4c(-c5c(Cl)cncc5Cl)noc4C4CC4)CC3)nc12 [II-49] | 0.401 to 5 | – |
| COc1cc(C(=O)O)cc2sc(N3CCN(Cc4c(C(C)C)cnn4-c4c(Cl)cccc4Cl)CC3C)nc12 (stereo not shown) [II-14] | 0.401 to 5 | – |
| CC(C)c1onc(-c2c(Cl)cccc2Cl)c1CC1CCN(c2nc3ccc(C(=O)O)cc3s2)CC1 [III-08] | 0.401 to 5 | – |
| 2-(4-[[3-(2,6-Dichlorophenyl)-5-(propan-2-yl)-1,2-oxazol-4-yl]methyl]piperazin-1-yl)-1-benzofuran-5-carboxylic acid [Compound X-01] | 0.401 to 5 | – |
| COc1cc(C#N)cc2sc(N3CCN(Cc4c(-c5c(Cl)cccc5Cl)noc4C(C)C)CC3)nc12 [IX-01, 2-(4-((3-(2,6-Dichlorophenyl)-5-isopropylisoxazol-4-yl)methyl)piperazin-1-yl)-4-methoxybenzo[d]thiazole-6-carbonitrile] | 0.401 to 5 | – |
| COc1cc(C(=O)O)cc2sc(N3C4CCC3CN(Cc3c(-c5c(Cl)cccc5Cl)noc3C3CC3)C4)nc12 [II-36] | 0.01 to 0.1 | – |
| CCC1CN(c2nc3c(OC)cc(C(=O)O)cc3s2)CCN1Cc1c(-c2c(Cl)cccc2Cl)noc1C1CC1 (stereo not shown) [II-21] | 0.101 to 0.4 | – |
